Our source for the EC50 values is patent US9617264B2, “2,7-diazaspiro[3.5]nonane compounds” (REMYND NV, priority 2014, dated 2017).

The structures appear in SMILES notation.

For the assay, the system named is M17_3SYN cells. The experiment in a line: Paraquat-induced cytotoxicity (LDH) in α-synuclein over-expressing M17_3SYN neuroblastoma cells. The format is cell-based. To be noted: Homo sapiens, Neuroblastoma cell, 48 h, 6 mM Paraquat, 2 days, LDH toxicity inhibition, read-out: SYN EC50. From the text: A α-synuclein expression plasmid was constructed by subcloning the NcoI/XhoI fragment from 212T-SYN(WT) (Griffioen et al., Biochem Biophys Acta (2006) 1762(3):312-318) containing the cDNA of human wild type α-synuclein correspondingly into a standard mammalian expression vector pcDNA3.1 resulting in plasmid pcDNA3.1-SYNwt. Plasmids pcDNA3.1 and pcDNA3.1-SYNwt were transfected into human neuroblastoma cells (BE-M17; ATCC No. CRL-2267™) using lipofectamine reagent and subsequently, independent clonal cell lines with the plasmids stably integrated into the genome were selected by antibiotic resistance selection (Geneticin (G418)), resulting in cell lines M17.pcDNA3 and M17_3SYN. Overexpression of α-synuclein in the M17_3SYN cell line was confirmed by Western blot analysis.
Due to the high levels of α-synuclein, M17_3SYN cells were sensitive to paraquat, a well-known risk factor Parkinson's disease and of synuclein-dependent neuronal degeneration. Cytotoxicity of cells was measured by quantification of lactate dehydrogenase (LDH) levels. In dead cells, LDH leaked out of the cells into the medium due to a loss of plasma-membrane integrity.
Three days preceding the experiment, primary pre-cultures of M17.pcDNA3 (as possible control) and M17_3SYN cells were prepared, starting from a stock culture, at a density of 20.000-40.000 cells/cm2 in culture medium (Opti-MEM® Reduced Serum Medium with Phenol Red (Invitrogen, Cat. 31985-047) supplemented with 10% FCS, 1 mM sodium pyruvate, 1×NEAA, 500 μg/ml G418 and 0.5× antibiotic/antimycotic (ABAM)). 3 days later these primary pre-cultures were used as a starting point to make secondary pre-cultures at a density of 50.000-100.000 cells/cm^2. At the day of the experiment these secondary precultures were diluted to ˜0.5·10^6 cells/ml in detection medium (Opti-MEM® Reduced-Serum Medium without Phenol Red (Invitrogen, Cat. 11085-021) supplemented with 10% FCS, 1 mM sodium pyruvate, 1×NEAA, 500 μg/ml G418 and 0.5×ABAM) and 60 μL of this suspension was dispensed per well into a 96-well microtiter plate. After 3 hours of incubation at 37° C./5% CO2 an equal volume of detection medium containing a final concentration of 6 mM Paraquat was added and subsequently incubated for 2 days at 37° C./5% CO2. Then LDH activity was determined using the Promega Cytotox 96 Non-Radioactive cytotoxicity assay (Promega, Cat. G1780), according to the manufacturer's instructions. Cytotoxicity was defined as the ratio of LDH relative to the total LDH in the cells and supernatant.
The assay described above using the M17_3SYN cell line allowed screening compounds for their ability to decrease cytotoxicity in PQ-challenged cells. Compounds of the invention were tested for their ability to decrease toxicity at different concentrations, ranging from low non-effective concentrations to high effective concentrations. Afterwards, a dose-dependent inhibition curve was used to calculate the EC50. A compound was considered to be active in this test when it inhibited toxicity by more than 20% relative to untreated M17_3SYN cells at a concentration of […] or lower.
By EC50 is commonly meant the concentration that produces a half-maximal response. `O=S(=O)(CC1CCCCC1)N1CCC2(CC1)CN(c1nc(Cc3ccc(F)cc3)ns1)C2` [Cmpd097, 5-(7-((Cyclohexylmethyl)sulfonyl)-2,7-diazaspiro[3.5]nonan-2-yl)-3-(4-fluorobenzyl)-1,2,4-thiadiazole]: the EC50 was 190 nM.

Turning to `Cc1ccc(S(=O)(=O)N2CCC3(CC2)CN(c2nc(Cc4ccc(F)cc4)ns2)C3)s1` [Cmpd095, 3-(4-Fluorobenzyl)-5-(7-((5-methylthiophen-2-yl)sulfonyl)-2,7-diazaspiro[3.5]nonan-2-yl)-1,2,4-thiadiazole], the EC50 was 377 nM.

For `CCOc1ccc(S(=O)(=O)N2CCC3(CC2)CN(S(=O)(=O)c2ccc(OC)cc2)C3)cc1` [Cmpd046, 7-((4-Ethoxyphenyl)sulfonyl)-2-((4-methoxyphenyl)sulfonyl)-2,7-diazaspiro[3.5]nonane], the EC50 is 3.3 nM.

On to `CCCCc1nsc(N2CC3(CCN(S(=O)(=O)c4ccc(OC)cc4)CC3)C2)n1` [Cmpd035, 3-Butyl-5-(7-((4-methoxyphenyl)sulfonyl)-2,7-diazaspiro[3.5]nonan-2-yl)-1,2,4-thiadiazole], for which the EC50 was found to be 326 nM.

Regarding `COc1ccc(S(=O)(=O)N2CCC3(CC2)CN(c2nc(Cc4cccc(C(F)(F)F)c4)ns2)C3)cc1` [Cmpd036, 5-(7-((4-Methoxyphenyl)sulfonyl)-2,7-diazaspiro[3.5]nonan-2-yl)-3-(3-(trifluoromethyl)benzyl)-1,2,4-thiadiazole], the EC50 is 499 nM.

Consider `COc1ccc(S(=O)(=O)N2CCC3(CC2)CN(S(=O)(=O)c2ccc(F)cc2)C3)cc1` [Cmpd002, 2-((4-Fluorophenyl)sulfonyl)-7-((4-methoxyphenyl)sulfonyl)-2,7-diazaspiro[3.5]nonane], for which the EC50 came out at 25.8 nM.

Take `COc1ccc(C)cc1S(=O)(=O)N1CCC2(CC1)CN(c1nc(Cc3ccc(F)cc3)ns1)C2` [Cmpd062, 3-(4-Fluorobenzyl)-5-(7-((2-methoxy-5-methylphenyl)sulfonyl)-2,7-diazaspiro[3.5]nonan-2-yl)-1,2,4-thiadiazole]: the EC50 came to 342 nM.

With `Cc1cccc(S(=O)(=O)N2CCC3(CC2)CN(c2nc(Cc4ccc(F)cc4)ns2)C3)c1` [Cmpd066, 3-(4-Fluorobenzyl)-5-(7-(m-tolylsulfonyl)-2,7-diazaspiro[3.5]nonan-2-yl)-1,2,4-thiadiazole], the EC50 is 399 nM.

With `COc1ccccc1S(=O)(=O)N1CCC2(CC1)CN(c1nc(Cc3ccc(F)cc3)ns1)C2` [Cmpd080, 3-(4-Fluorobenzyl)-5-(7-((2-methoxyphenyl)sulfonyl)-2,7-diazaspiro[3.5]nonan-2-yl)-1,2,4-thiadiazole], the EC50 came out at 501 nM.

With `O=S(=O)(c1cccc(C(F)(F)F)c1)N1CCC2(CC1)CN(c1nc(Cc3ccc(F)cc3)ns1)C2` [Cmpd064, 3-(4-Fluorobenzyl)-5-(7-((3-(trifluoromethyl)phenyl)sulfonyl)-2,7-diazaspiro[3.5]nonan-2-yl)-1,2,4-thiadiazole], the 50% effective concentration (EC50) worked out at 1070 nM.

As to `COc1ccc(S(=O)(=O)N2CCC3(CC2)CN(c2nc(Cc4ccc(F)c(F)c4)ns2)C3)cc1` [Cmpd033, 3-(3,4-Difluorobenzyl)-5-(7-((4-methoxyphenyl)sulfonyl)-2,7-diazaspiro[3.5]nonan-2-yl)-1,2,4-thiadiazole], the EC50 amounted to 332 nM.

As for `COc1ccc(S(=O)(=O)N2CCC3(CC2)CN(c2nc4ccc(Cl)cc4s2)C3)cc1` [Cmpd052, 6-Chloro-2-(7-((4-methoxyphenyl)sulfonyl)-2,7-diazaspiro[3.5]nonan-2-yl)benzo[d]thiazole], the concentration for a half-maximal effect (EC50) turned out to be 463 nM.

Turning to `CCc1ccc(S(=O)(=O)N2CCC3(CC2)CN(c2nc(Cc4ccc(F)cc4)ns2)C3)cc1` [Cmpd068, 5-(7-((4-Ethylphenyl)sulfonyl)-2,7-diazaspiro[3.5]nonan-2-yl)-3-(4-fluorobenzyl)-1,2,4-thiadiazole], the EC50 came out at 399 nM.

Consider `Cc1ccccc1S(=O)(=O)N1CCC2(CC1)CN(c1nc(Cc3ccc(F)cc3)ns1)C2` [Cmpd069, 3-(4-Fluorobenzyl)-5-(7-(o-tolylsulfonyl)-2,7-diazaspiro[3.5]nonan-2-yl)-1,2,4-thiadiazole], for which the EC50 worked out at 182 nM.

Take `O=S(=O)(c1cccc(F)c1)N1CCC2(CC1)CN(c1nc(Cc3ccc(F)cc3)ns1)C2` [Cmpd071, 3-(4-Fluorobenzyl)-5-(7-((3-fluorophenyl)sulfonyl)-2,7-diazaspiro[3.5]nonan-2-yl)-1,2,4-thiadiazole]: the EC50 was found to be 441 nM.

With `O=S(=O)(c1ccc(OC(F)F)cc1)N1CCC2(CC1)CN(c1nc(Cc3ccc(F)cc3)ns1)C2` [Cmpd085, 5-(7-((4-(Difluoromethoxy)phenyl)sulfonyl)-2,7-diazaspiro[3.5]nonan-2-yl)-3-(4-fluorobenzyl)-1,2,4-thiadiazole], the EC50 stood at 541 nM.

As for `COc1ccc(S(=O)(=O)N2CCC3(CC2)CN(c2nc(Cc4ccc(F)cc4)ns2)C3)cc1` [Cmpd057, 3-(4-Fluorobenzyl)-5-(7-((4-methoxyphenyl)sulfonyl)-2,7-diazaspiro[3.5]nonan-2-yl)-1,2,4-thiadiazole], the EC50 was determined as 1.9 nM.

For `COc1ccc(S(=O)(=O)N2CCC3(CC2)CN(c2nc(Cc4ccc(F)cc4)ns2)C3)cc1OC` [Cmpd061, 5-(7-((3,4-Dimethoxyphenyl)sulfonyl)-2,7-diazaspiro[3.5]nonan-2-yl)-3-(4-fluorobenzyl)-1,2,4-thiadiazole], the EC50 came to 320 nM.

With `CSc1ccc(S(=O)(=O)N2CCC3(CC2)CN(c2nc4ccc(Cl)cc4s2)C3)cc1` [Cmpd055, 6-Chloro-2-(7-((4-(methylthio)phenyl)sulfonyl)-2,7-diazaspiro[3.5]nonan-2-yl)benzo[d]thiazole], the EC50 was determined as 334 nM.

Turning to `Cn1cc(S(=O)(=O)N2CCC3(CC2)CN(c2nc(Cc4ccc(F)cc4)ns2)C3)cn1` [Cmpd090, 3-(4-Fluorobenzyl)-5-(7-((1-methyl-1H-pyrazol-4-yl)sulfonyl)-2,7-diazaspiro[3.5]nonan-2-yl)-1,2,4-thiadiazole], the EC50 is 285 nM.

With `COc1ccc(S(=O)(=O)N2CCC3(CC2)CN(C(=O)C(C)(C)c2cccc(OC)c2)C3)cc1` [Cmpd016, 2-(3-Methoxyphenyl)-1-(7-((4-methoxyphenyl)sulfonyl)-2,7-diazaspiro[3.5]nonan-2-yl)-2-methylpropan-1-one], the concentration giving a half-maximal response (EC50) turned out to be 29.3 nM.
